Measurements taken from PubChem BioAssay AID463206 (Broad Institute, 2010).
The source made the active and inactive calls.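 Rule for the calls: active = caspase luminescence falls with dose and the half-maximal concentration AC50 from the fitted curve is at or below a set limit; inconclusive = flat fit at 30 to 70% signal loss, or invalid fit; inactive = AC50 above the limit, or signal rises instead.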

The compounds below were run on INS-1E cytokine-induced caspase-3/7, Caspase-Glo luminescence, 48 h (assay: suppression of cytokine-driven beta-cell apoptosis – INS-1E rat cells, luminescence, orthogonal assay for beta-cell apoptosis protection project, dose response (AID 463206)).

Row | SMILES | AC50
1 | Nc1ccc(Nc2ccccc2)cc1 | 17.7 µM
2 | CCOC(=O)c1ccc(NC(=O)Cn2cnc3cc(C)c(C)cc32)cc1 | > 26 µM (inactive)
3 | Oc1[nH]c2ccc(Br)cc2c1N=NC(=S)N1CCOCC1 | > 26 µM (inactive)
4 | Nc1c(C(=O)Nc2ccc3c(c2)OCCO3)nnn1Cc1ccccc1Cl | > 26 µM (inactive)
5 | O=[N+]([O-])c1cc(C(F)(F)F)ccc1NCCCCNS(=O)(=O)c1ccc(Cl)cc1 | > 26 µM (inactive)
6 | Cc1cc(C)n(CCC(=O)N/N=C/c2c(O)ccc3ccccc23)n1 | > 26 µM (inactive)
7 | O=C(Nc1ccc(F)cc1)c1cccnc1 | > 26 µM (inactive)
8 | CC1=CC(C)(C)N(C(=O)CSc2nnc(-c3ccc(C)cc3)o2)c2ccc(C)cc21 | > 12 µM (inactive)
9 | C=CCNC(=S)N/N=C(\C)c1ccccn1 | > 26 µM (inactive)
10 | COc1ccc(Br)cc1CN(C)CC(=O)NCc1ccc(F)cc1 | > 26 µM (inactive)
11 | C#CCOCCOCCOCCNc1nc(N2CCN(C(=O)CCCCCCCCCCNC(=O)Cn3cc(C[C@@H](C)O)nn3)CC2)nc(N2CCN(C(=O)CCCCCCCCCCNC(=O)[C@@H]([C@H](C)CC)n3cc(CCCCCN)nn3)CC2)n1 | > 26 µM (inactive)
12 | CCN(CC)c1ccc(/C=N/NC(=O)c2cnccn2)c(O)c1 | > 26 µM (inactive)
13 | C=C1C(=O)O[C@@H]2C[C@@H](C)[C@@H]3C4OC4C(=O)[C@@]3(C)[C@@H](O)[C@H]12 (some centres not stated) | > 26 µM (inactive)
14 | O=c1[nH]c(NCCCO)nc2c1C1(CCCC1)Cc1ccccc1-2 | > 26 µM (inactive)
15 | Cc1cc(/C=N/n2cnnc2)c(C)n1-c1ccc(OCc2ccc(Cl)cc2)cc1 | > 26 µM (inactive)
16 | COc1c(CC=C(C)C)cc(C2CC(=O)c3c(O)cc(O)cc3O2)cc1CC=C(C)C (configuration not stated) | > 26 µM (inactive)
17 | CC(C)(C)C1C/C(=C/c2ccccn2)C(=O)/C(=C/c2ccccn2)C1 (configuration not stated) | > 26 µM (inactive)
18 | COC(=O)C1CCCCN1C(=O)c1cc(COc2cccc3cnccc23)on1 (configuration not stated) | > 26 µM (inactive)
19 | CNc1nc2cc([N+](=O)[O-])c([N+](=O)[O-])cc2nc1NC | > 26 µM (inactive)
20 | CCn1c(/C=C/c2ccc([N+](=O)[O-])o2)nc2ccccc2c1=O | > 26 µM (inactive)
21 | CC(C)CCCCCCNC(=S)Nc1ccc(S(=O)(=O)N2CCOCC2)cc1 | > 26 µM (inactive)
22 | Cc1ccc2nc(-c3ccccn3)c(NC3CCCC3)n2c1 | > 12 µM (inactive)
23 | CCCCCCCCn1ccc(=N)cc1 | > 26 µM (inactive)
24 | C=CCN1C(=O)N/C(=C/c2ccc(N3CCOCC3)o2)C1=O | > 12 µM (inactive)

Row | SMILES | AC50
25 | O=C(Oc1c(CN2CCOCC2)cc(Cl)c2cccnc12)c1cccs1 | > 26 µM (inactive)
26 | O=C(N=Nc1c(O)n(Cc2ccccc2)c2ccccc12)c1cc2ccccc2cc1O | > 26 µM (inactive)
27 | Cn1c2c(c(=O)n(C)c1=O)C(C(F)(F)F)(C(F)(F)F)N=C(c1ccc(Cl)cc1)N2 | > 26 µM (inactive)
28 | Cc1ccccc1OCc1n(CC(=O)OC2CC(C)CCC2C(C)C)c2ccccc2[n+]1C (configuration not stated) | > 26 µM (inactive)
29 | CCOc1ccc(-n2c(-c3ccc(OC)cc3)c[n+]3c2CCCCC3)cc1 | > 26 µM (inactive)
30 | CCN1c2ccccc2N(C)C1(C)c1ccccc1 (configuration not stated) | > 26 µM (inactive)
31 | CN(C)c1ccc(-c2cc(O)c3ncccc3c2)cc1 | > 26 µM (inactive)
32 | Cc1ccc(S(=O)(=O)N2CCOCC2)cc1C(=O)Nc1nc(-c2ccccn2)cs1 | > 26 µM (inactive)
33 | COc1cccc(/C=N/NC(=O)c2c(-c3ccccc3)noc2C)c1O | > 26 µM (inactive)
34 | C#CCOCCOCCOCCNc1nc(N2CCN(C(=O)CCCCCCCCCCNC(=O)[C@@H](CCSC)n3cc(CCO)nn3)CC2)nc(N2CCN(C(=O)CCCCCCCCCCNC(=O)[C@H]([C@@H](C)CC)n3cc(CCCCCN)nn3)CC2)n1 | > 26 µM (inactive)
35 | CCCCCCCC(=O)Nc1ccc(C(=O)N/N=C/c2cccc([N+](=O)[O-])c2)cc1 | > 26 µM (inactive)
36 | COc1ccc(-c2c[n+](CC(=O)OC3CC(C)CCC3C(C)C)c3n2CCC3)cc1 (configuration not stated) | > 26 µM (inactive)
37 | COc1ccc(OC)c2[nH]c(C(=O)N/N=C/c3ccccc3O)cc12 | > 26 µM (inactive)
38 | COc1ccc([C@H]2CC(=O)C=C(c3ccnc4ccc(Cl)cc34)C2)cc1 | > 26 µM (inactive)
39 | CCN1CCN(c2ccc(S(=O)(=O)N3CCCCC3)cc2NC(=O)c2ccc([N+](=O)[O-])o2)CC1 | > 26 µM (inactive)
40 | O=[N+]([O-])/C=C/c1cn(Cc2ccc(F)cc2)c2ccccc12 | > 26 µM (inactive)
41 | Oc1c(CN2CCN(c3ccc(F)cc3)CC2)cc(Cl)c2cccnc12 | > 26 µM (inactive)
42 | Cc1nn(C)c(C)c1CN(C)S(=O)(=O)c1ccc2ccccc2c1 | > 26 µM (inactive)
43 | Cc1cccc(-n2c(C)cc(/C=N/n3cnnc3)c2C)c1 | > 26 µM (inactive)
44 | O=C(NC(NC(=S)Nc1ccccc1)C(Cl)(Cl)Cl)c1cccc(Cl)c1 (configuration not stated) | > 26 µM (inactive)
45 | c1cc(-c2noc(CC3CCCCC3)n2)ccn1 | > 26 µM (inactive)
46 | Cc1cc(C)nc(OC(=O)c2ccc(Cl)cc2Cl)n1 | > 26 µM (inactive)
47 | COc1ccc2cc1Oc1ccc(cc1)C[C@H]1c3c(cc(OC)c4c3Oc3c(ccc5c3[C@H](C2)N(C)CC5)O4)CCN1C | > 26 µM (inactive)
